Experimental data: the supplement of paper PMC11451515

System: NOMO1
Test: cell viability relative to DMSO control; higher = less cytotoxic
Conditions: 48 h
Summary of the method: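 Viability, reported as a per-plate percentage of DMSO wells with cell-free wells as background, came from CellTiter-Glo One luminescence. Reading took place after 48 h at 37°C. Before that, NOMO1 or SEM (500 cells/well) or P12-Ichikawa (1000 cells/well) leukemia cells, adapted for at least four passages in each medium, were seeded in 1536-well plates (5 μl) and pin-dosed with library compounds in DMSO, 47 μM to 0.79 nM over 11 threefold points.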

[1] = HPLM + 10% dialyzed FBS, 0.000781 µM
[2] = HPLM + 10% dialyzed FBS, 0.00234 µM
[3] = HPLM + 10% dialyzed FBS, 0.00702 µM
[4] = HPLM + 10% dialyzed FBS, 0.0211 µM
[5] = HPLM + 10% dialyzed FBS, 0.0632 µM
[6] = HPLM + 10% dialyzed FBS, 0.19 µM
[7] = HPLM + 10% dialyzed FBS, 0.569 µM
[8] = HPLM + 10% dialyzed FBS, 1.71 µM
[9] = HPLM + 10% dialyzed FBS, 5.12 µM
[10] = HPLM + 10% dialyzed FBS, 15.4 µM
[11] = HPLM + 10% dialyzed FBS, 46.1 µM
[12] = RPMI 5 mM glucose + 10% FBS, 0.000781 µM
[13] = RPMI 5 mM glucose + 10% FBS, 0.00234 µM
[14] = RPMI 5 mM glucose + 10% FBS, 0.00702 µM
[15] = RPMI 5 mM glucose + 10% FBS, 0.0211 µM
[16] = RPMI 5 mM glucose + 10% FBS, 0.0632 µM
[17] = RPMI 5 mM glucose + 10% FBS, 0.19 µM
[18] = RPMI 5 mM glucose + 10% FBS, 0.569 µM
[19] = RPMI 5 mM glucose + 10% FBS, 1.71 µM
[20] = RPMI 5 mM glucose + 10% FBS, 5.12 µM
[21] = RPMI 5 mM glucose + 10% FBS, 15.4 µM
[22] = RPMI 5 mM glucose + 10% FBS, 46.1 µM
[23] = RPMI 5 mM glucose + 10% dialyzed FBS, 0.000781 µM
[24] = RPMI 5 mM glucose + 10% dialyzed FBS, 0.00234 µM
[25] = RPMI 5 mM glucose + 10% dialyzed FBS, 0.00702 µM
[26] = RPMI 5 mM glucose + 10% dialyzed FBS, 0.0211 µM
[27] = RPMI 5 mM glucose + 10% dialyzed FBS, 0.0632 µM
[28] = RPMI 5 mM glucose + 10% dialyzed FBS, 0.19 µM
[29] = RPMI 5 mM glucose + 10% dialyzed FBS, 0.569 µM
[30] = RPMI 5 mM glucose + 10% dialyzed FBS, 1.71 µM
[31] = RPMI 5 mM glucose + 10% dialyzed FBS, 5.12 µM
[32] = RPMI 5 mM glucose + 10% dialyzed FBS, 15.4 µM
[33] = RPMI 5 mM glucose + 10% dialyzed FBS, 46.1 µM

Row | SMILES | cell viability [1] [%] | cell viability [2] [%] | cell viability [3] [%] | cell viability [4] [%] | cell viability [5] [%] | cell viability [6] [%] | cell viability [7] [%] | cell viability [8] [%] | cell viability [9] [%] | cell viability [10] [%] | cell viability [11] [%] | cell viability [12] [%] | cell viability [13] [%] | cell viability [14] [%] | cell viability [15] [%] | cell viability [16] [%] | cell viability [17] [%] | cell viability [18] [%] | cell viability [19] [%] | cell viability [20] [%] | cell viability [21] [%] | cell viability [22] [%] | cell viability [23] [%] | cell viability [24] [%] | cell viability [25] [%] | cell viability [26] [%] | cell viability [27] [%] | cell viability [28] [%] | cell viability [29] [%] | cell viability [30] [%] | cell viability [31] [%] | cell viability [32] [%] | cell viability [33] [%]
1 | C=CC(=O)Nc1cc2c(Nc3ccc(F)c(Cl)c3)ncnc2cc1C#CC(C)(C)N1CCN(C)CC1 | 112 | 109 | 112 | 89.9 | 92 | 108 | 117 | 89.2 | 55.3 | 6.12 | 6.26 | 95.3 | 93 | 91.7 | 95.4 | 101 | 93.5 | 101 | 95 | 94.6 | 7.56 | 12.7 | 99.2 | 101 | 107 | 95.3 | 86.6 | 103 | 101 | 106 | 52.7 | 8.43 | 5.07
2 | OC(=O)\C1=C\N(C2CC2)C3=CC(=C(F)C=C3C1=O)N4CCNCC4 | 108 | 117 | 119 | 129 | 113 | 127 | 118 | 134 | 64.4 | 47.5 | 22.5 | 116 | 126 | 104 | 118 | 119 | 113 | 128 | 118 | 90 | 75.1 | 23.5 | 112 | 132 | 119 | 116 | 120 | 122 | 117 | 123 | 88.1 | 63.5 | 33.9
3 | CCC(C)CCCCC(=O)N[C@@H](CCN)C(=O)NC(C(=O)N[C@H](CCN)C(=O)N[C@@H]1CCNC(=O)C([C@@H](C)O)NC(=O)[C@@H](CCN)NC(=O)[C@@H](CCN)NC(=O)[C@@H](CC(C)C)NC(=O)[C@H](Cc2ccccc2)NC(=O)[C@H](CCN)NC1=O)[C@@H](C)O (some centres not stated) | 118 | 110 | 113 | 112 | 123 | 133 | 137 | 119 | 124 | 127 | 125 | 102 | 125 | 109 | 108 | 112 | 120 | 118 | 130 | 130 | 126 | 115 | 113 | 121 | 134 | 130 | 131 | 131 | 137 | 134 | 124 | 135 | 123
4 | NC(=O)c1cnccn1 | 105 | 120 | 147 | 133 | 140 | 140 | 143 | 141 | 145 | 126 | 148 |  |  |  |  |  |  |  |  |  |  |  |  |  |  |  |  |  |  |  |  |  | 
5 | CN1C(=O)c2sccc2N(C)c2nc(Nc3ccc([S+](N)(=O)[O-])cc3)ncc21 | 113 | 100 | 115 | 104 | 97 | 117 | 105 | 73.4 | 60.5 | 28.5 | 8.75 | 97.2 | 93.2 | 98.4 | 104 | 106 | 90.4 | 90 | 92.9 | 55.3 | 36.4 | 7.28 | 97.8 | 94.7 | 109 | 99.3 | 99 | 95.1 | 98.2 | 70.8 | 53.5 | 33.2 | 4.45
6 | C[C@H](NC(=O)Cc1cc(F)cc(F)c1)C(=O)N[C@H](C(=O)OC(C)(C)C)c1ccccc1 | 98.4 | 110 | 98.2 | 101 | 111 | 91.2 | 101 | 73.8 | 91.6 | 91.3 | 80.3 | 88.9 | 84.9 | 92.2 | 80.8 | 92 | 87.4 | 76.1 | 79.3 | 76.4 | 81.9 | 75.4 | 95.3 | 85.3 | 94 | 85.2 | 101 | 92.9 | 91.4 | 92.7 | 92.6 | 79.5 | 82.8
7 | NC1=NC(=O)N2CC12 (configuration not stated) | 82 | 94.5 | 104 | 102 | 107 | 99.3 | 104 | 73.9 | 43.5 | 4.8 | 4.55 | 87.7 | 94.5 | 94.2 | 87.8 | 92.2 | 90.1 | 85.3 | 82.7 | 56.2 | 4.92 | 4.24 | 88.3 | 76.1 | 87.8 | 93.4 | 104 | 101 | 106 | 64.7 | 55.9 | 3.18 | 4.25
8 | c1cc(-c2cnn3cc(-c4ccc(OCCN5CCCCC5)cc4)cnc23)ccn1 | 95.4 | 83.7 | 101 | 87.5 | 83.1 | 88.8 | 88.6 | 67.2 | 76.1 | 72.8 | 30.5 | 83.1 | 88.8 | 87.4 | 81.2 | 83.9 | 83.4 | 80.6 | 80.9 | 80.4 | 85.9 | 80.2 | 80.1 | 84.5 | 82.6 | 86.9 | 89.5 | 86.5 | 79.6 | 84 | 78.3 | 80.9 | 74
